Data reported in patent US20260108600A1, “METHODS AND COMPOSITIONS RELATING TO IMPROVED IONIC LIQUID ADJUVANTS” (PRESIDENT AND FELLOWS OF HARVARD COLLEGE, priority 2022, published 2026).
“Also recorded” adds a separate entry of the source. Where two headings read alike, the source gives them in different places.

Experiments:
[1] = anion; cited from earlier work
Balb/c mice = test system: Balb/c mice
Procedure: Balb/c mice received one immunization with 10% IL (w/v) and ovalbumin as a model antigen. The antibody and humoral response was then measured.
(§1) Cytokine responses were measured 4 hours after injection.
Antibody responses were measured 14 days after injection.

C57BL/6 mice = test system: C57BL/6 mice
Procedure: C57BL/6 mice received two immunizations with 10% IL (w/v) and ovalbumin as a model antigen, at day 0 and day 14.
as §1
Antibody responses were measured 14 and 28 days after injection.
T cell responses were measured 7, 14, 21, or 28 days after injection.

OVA = target: T1, OVA (Gallus gallus, UniProt P01012); assay: Stability of OVA combined with IL adjuvants (dialysis/SEC, circular dichroism, SDS page); assay type: physicochemical
T1 sequence (P01012 1-386): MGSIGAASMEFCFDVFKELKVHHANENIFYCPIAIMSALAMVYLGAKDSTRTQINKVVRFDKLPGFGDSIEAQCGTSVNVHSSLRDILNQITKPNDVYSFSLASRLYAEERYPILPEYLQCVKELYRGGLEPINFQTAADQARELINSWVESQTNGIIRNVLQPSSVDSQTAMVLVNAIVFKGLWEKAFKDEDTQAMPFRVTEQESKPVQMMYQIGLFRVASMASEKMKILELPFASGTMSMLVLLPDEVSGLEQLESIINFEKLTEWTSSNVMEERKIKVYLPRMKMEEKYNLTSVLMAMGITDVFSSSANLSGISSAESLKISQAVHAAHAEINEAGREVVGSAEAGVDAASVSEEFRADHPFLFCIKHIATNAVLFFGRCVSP
Text: Anions were varied based on hydrophobicity (FIG. 8). […] ILs were screened for: • a. Stability of OVA. […] In vitro immune cell maturation and activation.
Role of the payload. […] Simple dialysis was replaced by SEC to remove OVA from ChoShorb formulations.

[2] = 10% ChoSorb injections
Procedure: Blood was drawn 4 and 24 hours after the initial dose, and the levels of IL6 and MCP-1 measured (FIGS. 11A-11D). The levels of Tetramer cells were measured at Day 21 and Day 35 (FIGS. 12A-12D). […] The antibody response was measured (FIGS. 13A-13B).

LPO expression = LPO expression with or without deferoxamine (ferroptosis indication); assay type: cell-based
mytotubes (C2C12 cells) = conditions: IL at varying concentrations, with or without OVA
Procedure: (§2) The impact of differential payloads impacting the ChoSorb response was investigated in vitro. The experiment was done with IL alone and IL+OVA at each concentration to understand how payload (OVA) impacts the cell death pathway since payload may impact the early cell death pathway. Cells were treated with IL at varying concentrations and with or without OVA, then stained with Annexin V and PI at 24 hours (FIGS. 28A-28B).

primary dendritic cells = conditions: IL at varying concentrations, with or without OVA
Procedure: as §2

Balb/c and C57BL/6 mice = conditions: after priming and booster shot
Procedure: In vivo vaccination of OVA with IL adjuvants in Balb/c and C57BL/6 mice. Antigen-specific antibodies and CD8+ T cell responses were evaluated after priming and booster shot.

[3] = lower doses, comparing across IL concentration
[4] = 4 hours after injection, 10% IL (w/v) with ovalbumin

## CC=C(C)C=C(C)C(=O)O [2,4-Dimethyl-2,4-hexadienoic acid]
[1]
  LogP: 2.3

## CC/C=C\C=C\C(=O)O [2,4-Heptadienoic acid, (2E,4Z)-]
[1]
  LogP: 1.8

## C=CCCC/C=C/C(=O)O [2E,7-Octadienoic acid]
[1]
  LogP: 2.2

## C=CC=CCCC(=O)O [4,6-Heptadienoic acid]
[1]
  LogP: 1.5

## C=CC=CCCCC(=O)O [5,7-Octadienoic acid]
[1]
  LogP: 1.8

## CCCCCCCCC=CCCCCCC=CCCC(=O)O [11,4-Eicosadienoic Acid]
[1]
  LogP: 7.9

## CC(C)=C(C)/C=C/C(=O)O [(2E)-4,5-dimethyl-2,4-hexadienoic acid]
[1]
  LogP: 2.5

## C=CCC/C=C/C(=O)O [(2E)-hepta-2,6-dienoic acid]
[1]
  LogP: 1.6

## C/C=C/C/C=C/C(=O)O [(2E,5E)-2,5-Heptadienoic acid]
[1]
  LogP: 1.6

## C/C=C/CC/C=C/C(=O)O [(2E,6E)-2,6-Octadienoic acid]
[1]
  LogP: 1.8

## CCC/C=C/C=C\C(=O)O [(2Z,4E)-Octa-2,4-dienoic acid]
[1]
  LogP: 2.3

## C=CCC/C=C/CC(=O)O [(3E)-3,7-octadienoic acid]
[1]
  LogP: 1.8

## CCC/C=C\CC/C=C\CCCCCC(=O)O [(7Z,11Z)-pentadeca-7,11-dienoate]
[1]
  LogP: 5.4

## C/C=C\CC/C=C\CCCCCCCC(=O)O [(9Z,13Z)-pentadeca-9,13-dienoate]
[1]
  LogP: 5.5

## C/C=C/C=C/C(=O)[O-].C[N+](C)(C)CCO [ChoSorb, choline:sorbic acid]
Balb/c mice; [4]
  IL-6 concentrations: significantly higher
Balb/c mice; Day 14
  Total IgG antibody titers: significantly increased
C57BL/6 mice; [4]
  IL-6 concentrations: significantly higher
C57BL/6 mice; Day 14
  Total IgG antibody titers: significantly increased
C57BL/6 mice; Day 21
  CD4+ memory T cells: significant increase
C57BL/6 mice; Day 28
  Th1/Th2 antibody response (IgG2c, IgG1): balanced immune response
  Total IgG antibody titers: significantly increased
C57BL/6 mice; especially after a booster vaccination
  level of antigen-specific T cells (OVA-tetramer staining of CD8+ T cells): significantly increased
OVA
  antigen (OVA) stability in IL formulation: preserve antigen stability; also recorded: stable
OVA; simple dialysis replaced by SEC to remove OVA
  binding of OVA by IL: bound strongly
[2]
  muscle tightness after injection: cause muscle tightness over time
LPO expression; early time points
  LPO expression: induces LPO expression
LPO expression; treated with deferoxamine (DFO), an iron chelator
  LPO expression: not when treated with deferoxamine (DFO)
Mytotubes (C2C12 cells)
  apoptosis (Annexin V and PI): apoptosis occurs after 24 hours
Primary dendritic cells
  apoptosis (Annexin V and PI): apoptosis occurs after 24 hours
Balb/c and C57BL/6 mice
  antigen-specific immune response (T-cell and antibody): create an antigen-specific immune response in both T-cell and antibody responses
[3]
  tetramer cell levels, separate vs combo delivery: outperformed combo doses
24 hour mark
  chemokine and cytokine levels in the serum: significantly higher than saline
48 hour mark
  chemokine and cytokine levels in the serum: no significant difference from saline
Among infiltrating cell types
  CD4+ T cells: significant increase
Compared to saline
  CD45+ cell infiltration into the muscle: more significant rate
Draining lymph node
  inflammatory monocytes: increase
  mature resident cDC1 dendritic cells: increase
Draining lymph node (dLN) after IL injection
  Neutrophils: spiked
Injection site
  Monocytes: increased significantly
  inflammatory monocytes: increased significantly
serum
  IL-6: upregulated
  MCP-1: upregulated

## CC=CCCC=CCC(=O)O [Nona-3,7-dienoate]
[1]
  LogP: 2.6

## CCC=CC=CCC(=O)O [Octa-3,5-dienoic acid]
[1]
  LogP: 1.8

## C/C=C/C=C/C(=O)O [Sorbic Acid]
[1]
  LogP: 1.43
